The values below come from patent publication US20040180394A1, “Assays for inositol phosphates” (priority 2001, published 2004).

Where no end group is shown, it is not given here.

For experiment [1], the system named is acetylcholine receptors naturally expressed in HEK293 cells. Briefly: Inositol phosphate SPA assay in wild-type HEK293 cells. The conditions noted are these: 1 mM carbachol, 5 mM LiCl where used (FIG. 9). In kind it is cell-based, human. The text has this: See Example 8 for details.
For a further experiment, the system named is parent T24 cell line. Briefly: FLIPR intracellular calcium in parent T24 cell line. It is filed as cell-based.
In another experiment the test system is untransfected T24 cells. Description: Inositol phosphate SPA assay in untransfected T24 cells. It is filed as cell-based. Particulars: 1 mM carbachol.
The test system of experiment [2] is untransfected CHO/NFAT cells. Description: Inositol phosphate assay in untransfected CHO/NFAT cells. It is filed as cell-based. The conditions noted are these: untransfected CHO/NFAT cells (FIGS. 7A-D), 10 nM NPFF. The text has this: There was no response to NPFF in untransfected CHO/NFAT cells (FIGS. 7A-D).

Regarding `C[N+](C)(C)CCOC(N)=O` [carbachol], in experiment [1], the inositol phosphate level entry was “increase of inositol phosphate”. Further, in the experiment with parent T24 cell line, the “rise in intracellular calcium” value is given as “no rise in intracellular calcium”. In addition, the “response to agonist (inositol phosphates)” value in the experiment on untransfected T24 cells is on record as “no response”.
As to “NPFF: agonist used at 10 nM to activate the human neuropeptide FF receptor (FLFQPQRF; ends and bridges not checked; UniProt O15130 69-76, looked up)”, the “response to agonist (inositol phosphates)” value in experiment [2] was “no response”.
